The source of these data is PMC4880513 (Journal of natural products, 2015).

In experiment [1] the test system is Male Swiss Webster mice. Kind of experiment: mouse tetrad assay: overall cannabimimetic action. The following applies: ip, result in words.
Experiment [2] concerns Male Swiss Webster mice. Description: mouse tetrad assay: locomotor activity. The following applies: for hypolocomotive activity: ip, across doses, result in words; for locomotor activity: total photobeam interruptions, last 10 min of 30 min, mean ± SEM.
In experiment [3] the target is CB1 receptor (Homo sapiens, UniProt P21554). Description: functional assays at CB1 receptor. The following applies: result in words. The experiment is classed as biochemical.
CB1 receptor, sequence (P21554 whole entry): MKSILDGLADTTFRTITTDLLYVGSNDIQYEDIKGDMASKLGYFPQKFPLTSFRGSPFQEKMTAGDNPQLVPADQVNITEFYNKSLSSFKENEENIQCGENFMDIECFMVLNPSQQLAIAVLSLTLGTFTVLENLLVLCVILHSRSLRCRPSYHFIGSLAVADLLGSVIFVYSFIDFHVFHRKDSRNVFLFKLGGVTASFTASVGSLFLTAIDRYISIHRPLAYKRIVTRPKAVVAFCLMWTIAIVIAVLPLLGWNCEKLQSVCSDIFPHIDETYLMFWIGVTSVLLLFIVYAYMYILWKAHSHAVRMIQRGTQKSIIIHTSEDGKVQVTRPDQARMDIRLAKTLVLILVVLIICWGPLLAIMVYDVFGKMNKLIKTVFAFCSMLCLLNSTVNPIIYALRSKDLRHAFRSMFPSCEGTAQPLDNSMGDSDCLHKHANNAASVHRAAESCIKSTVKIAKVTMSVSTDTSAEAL
Experiment [4] deals with CB2 receptor (Homo sapiens, UniProt P34972). Kind of experiment: functional assays at CB2 receptor. The class given is biochemical. The following applies: result in words.
CB2 receptor, sequence (P34972 whole entry): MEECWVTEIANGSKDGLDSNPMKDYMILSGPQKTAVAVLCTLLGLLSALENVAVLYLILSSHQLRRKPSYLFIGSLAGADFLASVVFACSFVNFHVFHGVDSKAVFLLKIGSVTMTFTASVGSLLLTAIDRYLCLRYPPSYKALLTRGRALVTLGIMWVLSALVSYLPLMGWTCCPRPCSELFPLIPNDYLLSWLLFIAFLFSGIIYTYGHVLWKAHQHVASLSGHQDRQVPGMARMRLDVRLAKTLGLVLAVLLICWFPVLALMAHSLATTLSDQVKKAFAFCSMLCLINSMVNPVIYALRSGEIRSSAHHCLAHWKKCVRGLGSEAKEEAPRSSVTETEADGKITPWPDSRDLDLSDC
The target in experiment [5] is full-length human cannabinoid-2 receptor (Homo sapiens, UniProt P34972). Description: CB2 receptor radioligand binding assay.
full-length human cannabinoid-2 receptor, sequence (P34972 whole entry): as above
The target of experiment [6] is full-length human cannabinoid-1 receptor (Homo sapiens, UniProt P21554). The following applies: radioligand binding.
full-length human cannabinoid-1 receptor, sequence (P21554 whole entry): as the sequence (P21554 whole entry) above
For experiment [7], the system named is Male Swiss Webster mice. Description: mouse tetrad assay: rectal temperature. The following applies: difference between basal and postinjection temperatures, mean ± SEM.
Experiment [8] relates to Male Swiss Webster mice. Kind of experiment: mouse tetrad assay: tail-flick latency. The following applies: cutoff 15 s, mean ± SEM. (In general: In hot-plate and tail-flick tests a longer latency is read as antinociception.)
Experiment [9] has as its system Male Swiss Webster mice. Description: mouse tetrad assay: catalepsy. The following applies: latency to drop, cutoff 180 s, mean ± SEM.
Experiment [10] relates to Male Swiss Webster mice. Kind of experiment: mouse tetrad assay: hot-plate latency. The following applies: cutoff 45 s, mean ± SEM.

Entries after “also recorded” stand apart in the source; their conditions may differ. Read-outs that look alike come from different tables or passages of the source. Marks after values point to notes of the source that are not given here.

Take `CCCCCc1cc(O)c2c(c1)OC(C)(C)[C@@H]1C[C@H](O)C(C)=C[C@@H]21` [Compound 1, 8α-hydroxy-Δ^9-tetrahydrocannabinol]: the “cannabimimetic activity in the mouse tetrad assay” value in experiment [1] (dose of 20 mg/kg) was “did not exhibit typical cannabimimetic activity”.

For `CCCCCc1cc(O)c2c(c1)OC(C)(C)[C@@H]1C[C@@H](O)C(C)=C[C@@H]21` [Compound 2, 8β-hydroxy-Δ^9-tetrahydrocannabinol], the hypolocomotive activity result in experiment [2] is recorded as “dose-dependent hypolocomotive effect only”; in experiment [2] (listed as compound 2), “significant dose-dependent hypolocomotive activity”. Besides, the “cannabimimetic-like action in the mouse tetrad assay” value (from here on “cannabimimetic-like action”) in [1] (at the doses tested) is on record as “lacked any cannabimimietic activity”; in experiment [1] (doses up to 20 mg/kg), “lacked typical cannabimimetic-like action”.

Take `CCCCCc1cc(O)c2c(c1)OC(C)(C)[C@@H]1CC=C(C)[C@H](O)[C@@H]21` [Compound 3, 10α-hydroxy-Δ^8-tetrahydrocannabinol]: the “functional activity at CB1 receptor” value in [3] was “partial agonist”; in experiment [3] (listed as compound 3), “partial CB1 agonist”. Besides, the “functional activity at CB2 receptor” value in experiment [4] is “partial agonist”. Further, in experiment [5], the “binding affinity (nM) CB2” value is recorded as “nearly as tightly as THC”. The “binding affinity (nM) CB1” value is “nearly as tightly as THC” in [6] and “highest affinity” in [6] (listed as compound 3). Further, in experiment [1] (at the doses tested), the “cannabimimetic-like action” value was “most potent cannabimimetic-like actions; also recorded: typical cannabimimetic actions”.

With `CCCCCc1cc(O)c2c(c1)OC(C)(C)[C@@H]1CC=C(C)[C@@H](O)[C@@H]21` [Compound 4, 10β-hydroxy-Δ^8-tetrahydrocannabinol], the “effects in the mouse tetrad assay” value in [1] (40 mg/kg (highest tested dose), 40 mg/kg) is “hypothermic and antinociceptive activity”. Also, the “cannabimimetic-like action” value in [1] (at the doses tested) is reported as “partial cannabimimetic action”.

Consider `CCCCCc1cc(O)c2c(c1)OC(C)(C)[C@@H]1CC[C@@]3(C)O[C@H]3[C@@H]21` [Compound 6, 9β,10β-epoxyhexahydrocannabinol], for which the “cannabimimetic-like action” value in experiment [1] (at the doses tested) is listed as “most potent cannabimimetic-like actions”.

Consider `CCCCCc1cc(O)c2c(c1)OC(C)(C)[C@@H]1CC=C(C)C[C@@H]21` [Δ^8-THC, Δ^8-tetrahydrocannabinol], for which the “decrease in rectal temperature (°C)” value in [7] (5 mg/kg ip) is 0.12 ± 0.09 °C; in experiment [7] (20 mg/kg ip) it was 1.96 ± 0.37 ^a °C.

As for “(−)-trans-Δ^9-tetrahydrocannabinol [Δ^9-THC]”, the results for the locomotor activity in experiment [2] (10 mg/kg ip), in experiment [2] (20 mg/kg ip) and in [2] (40 mg/kg ip) were 190.9 ± 33.8 ^c, 276.2 ± 52.6 ^c and 194.0 ± 49.2 ^c, respectively. The “tail-flick latency (% MPE)” value in experiment [8] (10 mg/kg ip) is 6.52 ± 2.00 % MPE; in experiment [8] (20 mg/kg ip), 42.21 ± 17.04 ^b % MPE; in experiment [8] (40 mg/kg ip), 51.96 ± 13.22 ^c % MPE. Moreover, the “catalepsy latency” value in experiment [9] (10 mg/kg ip) is listed as 14.4 ± 4.16 s. The figures for the “catalepsy latency (s)” value in experiment [9] (20 mg/kg ip) and in experiment [9] (40 mg/kg ip) were 47.9 ± 20.04 ^b s and 37.7 ± 14.64 ^a s, respectively. For the same compound, the “decrease in rectal temperature (°C)” value is 2.05 ± 0.25 °C in experiment [7] (10 mg/kg ip), 4.25 ± 0.78 ^c °C in experiment [7] (20 mg/kg ip) and 4.80 ± 0.28 ^c °C in experiment [7] (40 mg/kg ip). In addition, the “hot-plate latency (% MPE)” value in experiment [10] (10 mg/kg ip) is on record as 29.04 ± 5.37 ^c % MPE; in experiment [10] (20 mg/kg ip), 46.85 ± 9.08 ^c % MPE; in [10] (40 mg/kg ip), 38.18 ± 4.05 ^c % MPE.
